Test results published in patent US8956869B2, “Peptide inhibiting differentiation of hematopoietic stem cells or hematopoietic precursor cells and use of same” (Kyushu University, National University Corporation, priority 2009, dated 2015).
Where a SMILES comes first, the peptide text is derived from it. Where no end group is shown, it is not given here. The star is where a group is joined. Myristoyl = CCCCCCCCCCCCCC(=O)*

Columns and labels:
Format in all cases: cell-based
[1] = tested on: human cord blood CD34(+) hematopoietic stem cell population; test: Confirmation of induction of cell death (PI staining, live cell ratio); settings: KS-13 1 and 10 μg/mL, 11 days
Procedure: (§1) (1-2) In order to confirm induction of cell death, cells that were liquid-cultured for 11 days in each experimental system were stained with PI, and the ratio of live cells was calculated based on the measured number of dead cells.
(§2) The live cell ratio {(the number of live cells/(the number of live cells+the number of dead cells)} was calculated for each experimental system (control, positive control, KS-13 (1 μg/mL), and KS-13 (10 μg/mL)), using cells that were liquid-cultured for 11 days as the target cells. The results are shown below.

[2] = as above; settings: human, liquid-cultured 11 days
Procedure: as §1, §2

[3] = tested on: mouse fetal liver hematopoietic stem cells (CD45(+)c-Kit(+)Sca-1 (+)); test: Hematopoietic colony-forming cell assay; settings: for number of colonies: peptide 30 μg/mL, culturing for 12 days, 1,000 cells/dish
Procedure: KS-13 (10 μg/mL or 30 μg/mL) was added to a semisolid medium (Methocult M3434 produced by STEMCELL Technologies) containing cell stimulatory factors (50 ng/mL of rm SCF, 10 ng/mL of rm IL-3, 10 ng/mL of rh IL-6, and 3 U/mL of rh EPO) (rm: recombinant form; rh: recombinant human form), and mouse fetal liver hematopoietic stem cells (CD45(+)c-Kit(+)Sca-1 (+)) (1,000 cells/dish) were cultured. Hematopoietic colony-forming cell assay was performed to evaluate the hematopoietic potential of the cells. Further, for comparison, hematopoietic colony-forming cell assay was performed in a similar manner using a KS-13-free liquid medium (none), and the hematopoietic potential of the cells was evaluated.
Myristoylated KS-13 (30 μg/mL) in which the N-terminal of KS-13 (SEQ ID NO: 1) is myristoylated and control peptide (NQVSIGCPCDGKK: SEQ ID NO: 22) (30 μg/mL) were added to a semisolid medium (Methocult M3434 produced by STEMCELL Technologies) containing cell stimulatory factors (50 ng/mL of rm SCF, 10 ng/mL of rm IL-3, 10 ng/mL of rh IL-6, and 3 U/mL of rh EPO) (rm: recombinant form; rh: recombinant human form) to culture mouse fetal liver hematopoietic stem cells (CD45(+)c— Kit(+)Sca-1(+)) (1,000 cells/dish) therein. Then, hematopoietic colony-forming cell assay was performed to evaluate the hematopoietic potential of the cells.

Compound | induction of cell death [1] | viability at 264 h, 1 µg/mL ([2]; KS-13 1 μg/mL) [%] | viability at 264 h, 10 µg/mL ([2]; KS-13 10 μg/mL) [%] | number of colonies [3] | colony formation versus control peptide ([3]; 30 μg/mL, 12 days)
CC[C@H](C)[C@H](NC(=O)[C@@H](NC(=O)[C@H](CS)NC(=O)[C@@H]1CCCN1C(=O)CNC(=O)[C@H](CC(=O)O)NC(=O)[C@H](CCCCN)NC(=O)[C@H](CCCCN)NC(=O)[C@H](CCC(N)=O)NC(=O)[C@@H](N)CS)C(C)C)C(=O)N[C@@H](CC(N)=O)C(=O)NCC(=O)N[C@@H](CO)C(=O)O [KS-13, Cys Gln Lys Lys Asp Gly Pro Cys Val Ile Asn Gly Ser] (H-CQKKDGPCVINGS-OH) | does not induce cell death | 97.5 | 97.6 |  | 
NQVSIGCPCDGKK (Control peptide) [reference compound] |  |  |  | 111.1 | 
myristoylated KS-13: KS-13 (SEQ ID NO: 1) in which the N-terminal is myristoylated (Myristoyl-CQKKDGPCVINGS; cysteine pairing not given here; listed as Homo sapiens) |  |  |  | 93.9 | inhibited colony formation more than the control
